# Experimental data reported in PubChem BioAssay AID330 (DTP/NCI, 2004).
# Values joined by “and” are separate entries in the source; they are usually repeats but may differ in a detail not shown here. Identical values can stand only once. Toxic doses and inconclusive results are not listed. Square brackets hold non-standard residues; d marks the D form. Peptide text beside a SMILES is read from it. * marks the point of attachment. ξ: configuration not given here. Boc = CC(C)(C)OC(=O)*; ξP = O=C(O)C1CCCN1
# System: P388 leukemia ip, CD2F1 mice, survival T/C
# Assay: NCI In Vivo Anticancer Drug Screen. Data for tumor model P388 Leukemia (intraperitoneal) in CD2F1 (CDF1) mice
# Conditions: endpoint: median survival time, higher = longer survival
# Description: The antitumor activity of compounds was measured in mice bearing transplantable tumors. Survival or tumor size were measured and the results are expressed as the measurement made in the treated group (T) divided by the measurement made in the vehicle treated control group (C). The tumor model used in this assay is P388 Leukemia (intraperitoneal) in CD2F1 (CDF1) mice
# [1] = dose: 12.5 mg/kg/injection, schedule: Q01DX009 (ip), vehicle: saline
# [2] = dose: 50.0 mg/kg/injection, schedule: Q01DX009 (ip), vehicle: saline
# [3] = dose: 50.0 mg/kg/injection, schedule: Q01DX009 (ip), vehicle: Klucel (hydroxypropylcellulose) (HPC)
# [4] = dose: 100.0 mg/kg/injection, schedule: Q01DX009 (ip), vehicle: Klucel (hydroxypropylcellulose) (HPC)
# [5] = dose: 200.0 mg/kg/injection, schedule: Q01DX009 (ip), vehicle: Klucel (hydroxypropylcellulose) (HPC)
# [6] = dose: 25.0 mg/kg/injection, schedule: Q01DX009 (ip), vehicle: saline
# [7] = dose: 100.0 mg/kg/injection, schedule: Q01DX009 (ip), vehicle: saline
# [8] = dose: 60.0 mg/kg/injection, schedule: Q01DX005 (ip), vehicle: Klucel (hydroxypropylcellulose) (HPC)
# [9] = dose: 120.0 mg/kg/injection, schedule: Q01DX005 (ip), vehicle: Klucel (hydroxypropylcellulose) (HPC)
# [10] = dose: 12.5 mg/kg/injection, schedule: Q01DX009 (ip), vehicle: saline with Tween-80
# [11] = dose: 100.0 mg/kg/injection, schedule: Q04DX003 (ip), vehicle: saline with Tween-80
# [12] = dose: 200.0 mg/kg/injection, schedule: Q04DX003 (ip), vehicle: saline with Tween-80
# [13] = dose: 400.0 mg/kg/injection, schedule: Q04DX003 (ip), vehicle: saline with Tween-80
# [14] = dose: 50.0 mg/kg/injection, schedule: Q01DX005 (ip), vehicle: Klucel (hydroxypropylcellulose) (HPC)
# [15] = dose: 100.0 mg/kg/injection, schedule: Q01DX005 (ip), vehicle: Klucel (hydroxypropylcellulose) (HPC)
# [16] = dose: 200.0 mg/kg/injection, schedule: Q01DX005 (ip), vehicle: Klucel (hydroxypropylcellulose) (HPC)
# [17] = dose: 200.0 mg/kg/injection, schedule: Q01DX009 (ip), vehicle: saline
structure (smiles),measurement,setting,value
O=NNc1ccc([N+](=O)[O-])cn1,T/C,"dose: 3.12 mg/kg/injection, schedule: Q01DX009 (ip), vehicle: water",107 % of control
same,T/C,"dose: 6.25 mg/kg/injection, schedule: Q01DX009 (ip), vehicle: saline",106 % of control and 96 % of control
same,T/C,"dose: 6.25 mg/kg/injection, schedule: Q01DX009 (ip), vehicle: water",96 % of control
same,T/C,[1],122 % of control and 123 % of control
same,T/C,"dose: 12.5 mg/kg/injection, schedule: Q01DX009 (ip), vehicle: water",102 % of control
same,T/C,"dose: 25.0 mg/kg/injection, schedule: Q01DX009 (ip), vehicle: water",105 % of control and 88 % of control
same,T/C,[2],176 % of control
CC(=O)OC1(c2nccc3ccccc23)CCN(Cc2ccccc2)CC1,T/C,[3],106 % of control
same,T/C,[4],106 % of control
same,T/C,[5],102 % of control
C=CC1(C)CCC2C(=CCC3C2(C)CC(O)C(O)C3(C)COC2OC(CO)C(O)C(O)C2O)C1 (stereo not drawn),T/C,"dose: 1.5 mg/kg/injection, schedule: Q01DX009 (ip), vehicle: Klucel (hydroxypropylcellulose) (HPC)",103 % of control
same,T/C,"dose: 3.0 mg/kg/injection, schedule: Q01DX009 (ip), vehicle: Klucel (hydroxypropylcellulose) (HPC)",106 % of control
same,T/C,"dose: 6.0 mg/kg/injection, schedule: Q01DX009 (ip), vehicle: Klucel (hydroxypropylcellulose) (HPC)",116 % of control
same,T/C,"dose: 12.0 mg/kg/injection, schedule: Q01DX009 (ip), vehicle: Klucel (hydroxypropylcellulose) (HPC)",108 % of control
same,T/C,[1],99 % of control
same,T/C,"dose: 24.0 mg/kg/injection, schedule: Q01DX009 (ip), vehicle: Klucel (hydroxypropylcellulose) (HPC)",108 % of control
same,T/C,[6],100 % of control
same,T/C,[2],98 % of control
same,T/C,[7],93 % of control
COC(=O)c1ccc(C(=O)OC)c2nc3cc(C)c(C)cc3nc12,T/C,[8],96 % of control
same,T/C,[9],98 % of control
O=C(Nc1cccc(Cl)c1)c1cc(N=Nc2ccc([N+](=O)[O-])cc2Cl)ccc1O,T/C,"dose: 12.5 mg/kg/injection, schedule: Q01DX009 (ip), vehicle: Klucel (hydroxypropylcellulose) (HPC)",104 % of control
same,T/C,[10],105 % of control
same,T/C,"dose: 25.0 mg/kg/injection, schedule: Q01DX009 (ip), vehicle: Klucel (hydroxypropylcellulose) (HPC)",113 % of control
same,T/C,"dose: 25.0 mg/kg/injection, schedule: Q04DX003 (ip), vehicle: Klucel (hydroxypropylcellulose) (HPC)",107 % of control
same,T/C,[3],113 % of control
same,T/C,"dose: 50.0 mg/kg/injection, schedule: Q04DX003 (ip), vehicle: Klucel (hydroxypropylcellulose) (HPC)",107 % of control
same,T/C,[4],118 % of control
same,T/C,"dose: 100.0 mg/kg/injection, schedule: Q04DX003 (ip), vehicle: Klucel (hydroxypropylcellulose) (HPC)",115 % of control
same,T/C,"dose: 200.0 mg/kg/injection, schedule: Q04DX003 (ip), vehicle: Klucel (hydroxypropylcellulose) (HPC)",115 % of control
Cc1nn(C(=O)c2ccncc2)c(C)c1N=Nc1cccc(Cl)c1,T/C,[3],99 % of control
same,T/C,[4],100 % of control
same,T/C,[5],98 % of control
C[C@]12C=CC(=O)C[C@@H]1CC[C@@H]1[C@@H]2C(=O)C[C@]2(C)C(=O)CC[C@@H]12,T/C,[11],108 % of control
same,T/C,[12],91 % of control
same,T/C,[13],108 % of control
CN1C(=O)c2ccccc2C2(C1=O)C(C#N)=C(N)Oc1c2c2ccccc2c(=O)n1C (stereo not drawn),T/C,[8],99 % of control
same,T/C,[9],95 % of control
same,T/C,"dose: 240.0 mg/kg/injection, schedule: Q01DX005 (ip), vehicle: Klucel (hydroxypropylcellulose) (HPC)",88 % of control
Clc1nc(Cl)nc(-c2cn(-c3ccccc3)c3ccccc23)n1,T/C,[10],100 % of control
same,T/C,"dose: 25.0 mg/kg/injection, schedule: Q01DX009 (ip), vehicle: saline with Tween-80",90 % of control
same,T/C,"dose: 50.0 mg/kg/injection, schedule: Q01DX009 (ip), vehicle: saline with Tween-80",100 % of control
COc1cc(NC(C)=O)c2ncccc2c1NC(C)=O,T/C,[14],99 % of control
same,T/C,[15],96 % of control
same,T/C,[16],87 % of control
COc1ccc(OC)c2cc3c(cc12)C(=O)C(C)=C(C)C3=O,T/C,[14],89 % of control
same,T/C,[15],86 % of control
same,T/C,[16],88 % of control
CCN(CC)CCCC(C)N=C(Nc1ccccc1)c1ccc(Cl)cc1 (stereo not drawn),T/C,"dose: 50.0 mg/kg/injection, schedule: Q01DX005 (ip), vehicle: saline",104 % of control
same,T/C,"dose: 100.0 mg/kg/injection, schedule: Q01DX005 (ip), vehicle: saline",102 % of control
COC(=O)C1CCCN1C(=O)CNC(=O)OC(C)(C)C (stereo not drawn) (Boc-Gly-[ξP]-OMe),T/C,[2],105 % of control
same,T/C,[7],99 % of control
same,T/C,[17],99 % of control
same,T/C,"dose: 400.0 mg/kg/injection, schedule: Q01DX009 (ip), vehicle: saline",90 % of control
CC(C)CNC(=O)OCc1c(COC(=O)NCC(C)C)c(-c2ccc(Cl)c(Cl)c2)n2c1CCC2,T/C,"dose: 6.25 mg/kg/injection, schedule: Q01DX009 (ip), vehicle: distilled water + Tween-80",111 % of control and 116 % of control
same,T/C,"dose: 25.0 mg/kg/injection, schedule: Q01DX009 (ip), vehicle: distilled water + Tween-80",158 % of control and 171 % of control
same,T/C,"dose: 50.0 mg/kg/injection, schedule: Q01DX009 (ip), vehicle: distilled water + Tween-80",182 % of control and 198 % of control
same,T/C,"dose: 100.0 mg/kg/injection, schedule: Q01DX009 (ip), vehicle: distilled water + Tween-80",180 % of control
same,T/C,"dose: 200.0 mg/kg/injection, schedule: Q01DX009 (ip), vehicle: distilled water + Tween-80",100 % of control and 92 % of control
C[C@@H]1C[C@H]2C(=CC1=O)CC[C@@H]1[C@@H]2CC[C@]2(C)[C@@H](O)CC[C@@H]12,T/C,[11],100 % of control
same,T/C,[12],109 % of control
same,T/C,[13],100 % of control
O=C1C2CC(CN3CCCCC23)C2CCCCN12 (stereo not drawn),T/C,"dose: 6.2 mg/kg/injection, schedule: Q01DX007 (ip), vehicle: carboxymethylcellulose (CMC)",100 % of control
same,T/C,"dose: 12.5 mg/kg/injection, schedule: Q01DX007 (ip), vehicle: carboxymethylcellulose (CMC)",91 % of control
same,T/C,"dose: 25.0 mg/kg/injection, schedule: Q01DX007 (ip), vehicle: carboxymethylcellulose (CMC)",91 % of control
same,T/C,"dose: 37.5 mg/kg/injection, schedule: Q01DX009 (ip), vehicle: saline",95 % of control
same,T/C,"dose: 75.0 mg/kg/injection, schedule: Q01DX009 (ip), vehicle: saline",102 % of control
same,T/C,"dose: 150.0 mg/kg/injection, schedule: Q01DX009 (ip), vehicle: saline",101 % of control
CCCCC(C)(CCN)CCCC,T/C,"dose: 25.0 mg/kg/injection, schedule: Q01DX009 (ip), vehicle: suspension in saline",103 % of control
same,T/C,"dose: 50.0 mg/kg/injection, schedule: Q01DX009 (ip), vehicle: suspension in saline",105 % of control
same,T/C,"dose: 100.0 mg/kg/injection, schedule: Q01DX009 (ip), vehicle: suspension in saline",106 % of control
Cc1cccc(/C=C/C(=O)C(C)CN(C)C)c1 (stereo not drawn),T/C,"dose: 15.0 mg/kg/injection, schedule: Q01DX005 (ip), vehicle: saline",98 % of control
same,T/C,"dose: 30.0 mg/kg/injection, schedule: Q01DX005 (ip), vehicle: saline",105 % of control
same,T/C,"dose: 60.0 mg/kg/injection, schedule: Q01DX005 (ip), vehicle: saline",107 % of control and 116 % of control
CC1C=CC(C)C2C(=O)C3C(C)C=CC(C)C3C(=O)C12 (stereo not drawn),T/C,[14],93 % of control
same,T/C,[15],97 % of control
same,T/C,[16],87 % of control
N#C/C(=C/c1ccc(Cl)cc1)C(N)=O,T/C,"dose: 25.0 mg/kg/injection, schedule: Q01DX001 (ip), vehicle: saline with Tween-80",102 % of control
same,T/C,"dose: 50.0 mg/kg/injection, schedule: Q01DX001 (ip), vehicle: saline with Tween-80",104 % of control
same,T/C,"dose: 100.0 mg/kg/injection, schedule: Q01DX001 (ip), vehicle: saline with Tween-80",97 % of control
same,T/C,"dose: 200.0 mg/kg/injection, schedule: Q01DX001 (ip), vehicle: saline with Tween-80",97 % of control
COCC(=O)OC,T/C,[6],97 % of control
same,T/C,[2],100 % of control
same,T/C,[7],98 % of control
same,T/C,[17],92 % of control
COc1ccc(C(C)c2cc(C(C)(C)C)cc(C(C)(C)C)c2O)cc1 (stereo not drawn),T/C,"dose: 50.0 mg/kg/injection, schedule: Q01DX005 (ip), vehicle: distilled water + alcohol",100 % of control
same,T/C,"dose: 100.0 mg/kg/injection, schedule: Q01DX005 (ip), vehicle: distilled water + alcohol",96 % of control
same,T/C,"dose: 200.0 mg/kg/injection, schedule: Q01DX005 (ip), vehicle: distilled water + alcohol",94 % of control
